Measurements as given in article PMC7794376 (Nature Communications, 2021).
Converted amounts (≈) assume the structure as drawn. Where two headings read alike, the source gives them in different places.

How the values were obtained:
[1] = target: MtbCoaBC (Mycobacterium tuberculosis, UniProt P9WNZ1); experiment: biochemical; type: biochemical; conditions: for Activity R1 / Activity R3: slope of absorbance at 360 nm vs time (s); for activity at 0.0625 µM / activity at 0.25 µM / activity at 0.5 µM / activity at 1 µM / activity at 2 µM: relative to average DMSO CT
[2] = tested on: M. tuberculosis H37Rv; experiment: MIC determination in different media; type: cell-based; conditions: Mycobacterium tuberculosis

MtbCoaBC, sequence (P9WNZ1 whole entry): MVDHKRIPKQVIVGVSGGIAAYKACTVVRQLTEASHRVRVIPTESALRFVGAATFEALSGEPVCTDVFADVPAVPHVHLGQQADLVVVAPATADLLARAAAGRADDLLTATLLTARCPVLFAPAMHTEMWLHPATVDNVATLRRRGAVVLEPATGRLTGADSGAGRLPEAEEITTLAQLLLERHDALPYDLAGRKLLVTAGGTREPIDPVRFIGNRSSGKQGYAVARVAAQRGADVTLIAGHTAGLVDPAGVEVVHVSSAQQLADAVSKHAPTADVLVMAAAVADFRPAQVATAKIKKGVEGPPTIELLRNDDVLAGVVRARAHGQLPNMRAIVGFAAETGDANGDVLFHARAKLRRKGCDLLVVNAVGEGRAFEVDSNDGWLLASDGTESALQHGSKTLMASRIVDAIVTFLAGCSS

## O=c1cc(-c2ccc(O)cc2)oc2cc(O)c(O)c(O)c12 [2c]
[1]; 0.03125 uM 2c, replicate R1
  Activity R1: 0.0001739
[1]; 0.03125 uM 2c, replicate R3
  Activity R3: 0.000177
[1]; 0.0625 uM 2c, replicate R1, read-out: Inhibition % R1
  inhibition at 0.0625 µM: 8.57%
[1]; 0.0625 uM 2c, replicate R1, read-out: Activity % R1
  activity at 0.0625 µM: 91.4%
[1]; 0.0625 uM 2c, replicate R1
  Activity R1: 0.0001646
[1]; 0.0625 uM 2c, replicate R2, read-out: Inhibition % R2
  inhibition at 0.0625 µM: 5.71%
[1]; 0.0625 uM 2c, replicate R2, read-out: Activity % R2
  activity at 0.0625 µM: 94.3%
[1]; 0.0625 uM 2c, replicate R3, read-out: Inhibition % R3
  inhibition at 0.0625 µM: 10.2%
[1]; 0.0625 uM 2c, replicate R3, read-out: Activity % R3
  activity at 0.0625 µM: 89.8%
[1]; 0.0625 uM 2c, replicate R3
  Activity R3: 0.0001617
[1]; 0.25 uM 2c, replicate R1, read-out: Inhibition % R1
  inhibition at 0.25 µM: 34%
[1]; 0.25 uM 2c, replicate R1, read-out: Activity % R1
  activity at 0.25 µM: 66%
[1]; 0.25 uM 2c, replicate R1
  Activity R1: 0.0001189
[1]; 0.25 uM 2c, replicate R2, read-out: Inhibition % R2
  inhibition at 0.25 µM: 32.6%
[1]; 0.25 uM 2c, replicate R2, read-out: Activity % R2
  activity at 0.25 µM: 67.4%
[1]; 0.25 uM 2c, replicate R3, read-out: Inhibition % R3
  inhibition at 0.25 µM: 28.9%
[1]; 0.25 uM 2c, replicate R3, read-out: Activity % R3
  activity at 0.25 µM: 71.1%
[1]; 0.25 uM 2c, replicate R3
  Activity R3: 0.0001279
[1]; 0.5 uM 2c, replicate R1, read-out: Inhibition % R1
  inhibition at 0.5 µM: 56.9%
[1]; 0.5 uM 2c, replicate R1, read-out: Activity % R1
  activity at 0.5 µM: 43.1%
[1]; 0.5 uM 2c, replicate R1
  Activity R1: 0.000077692
[1]; 0.5 uM 2c, replicate R2, read-out: Inhibition % R2
  inhibition at 0.5 µM: 60.3%
[1]; 0.5 uM 2c, replicate R2, read-out: Activity % R2
  activity at 0.5 µM: 39.7%
[1]; 0.5 uM 2c, replicate R3, read-out: Inhibition % R3
  inhibition at 0.5 µM: 53.5%
[1]; 0.5 uM 2c, replicate R3, read-out: Activity % R3
  activity at 0.5 µM: 46.5%
[1]; 0.5 uM 2c, replicate R3
  Activity R3: 0.000083810
[1]; 1 uM 2c, replicate R1, read-out: Inhibition % R1
  inhibition at 1 µM: 77.6%
[1]; 1 uM 2c, replicate R1, read-out: Activity % R1
  activity at 1 µM: 22.4%
[1]; 1 uM 2c, replicate R1
  Activity R1: 0.000040344
[1]; 1 uM 2c, replicate R2, read-out: Inhibition % R2
  inhibition at 1 µM: 82.6%
[1]; 1 uM 2c, replicate R2, read-out: Activity % R2
  activity at 1 µM: 17.4%
[1]; 1 uM 2c, replicate R3, read-out: Inhibition % R3
  inhibition at 1 µM: 72.1%
[1]; 1 uM 2c, replicate R3, read-out: Activity % R3
  activity at 1 µM: 27.9%
[1]; 1 uM 2c, replicate R3
  Activity R3: 0.000050204
[1]; 2 uM 2c, replicate R1, read-out: Inhibition % R1
  inhibition at 2 µM: 91.9%
[1]; 2 uM 2c, replicate R1, read-out: Activity % R1
  activity at 2 µM: 8.07%
[1]; 2 uM 2c, replicate R1
  Activity R1: 0.000014525
[1]; 2 uM 2c, replicate R2, read-out: Inhibition % R2
  inhibition at 2 µM: 95%
[1]; 2 uM 2c, replicate R2, read-out: Activity % R2
  activity at 2 µM: 5.02%
[1]; 2 uM 2c, replicate R3, read-out: Inhibition % R3
  inhibition at 2 µM: 84.9%
[1]; 2 uM 2c, replicate R3, read-out: Activity % R3
  activity at 2 µM: 15.1%
[1]; 2 uM 2c, replicate R3
  Activity R3: 0.000027204
[1]; read-out: Activity % R1
  activity at 0.03125 µM: 96.6%
[1]; read-out: Activity % R2
  activity at 0.03125 µM: 96.7%
[1]; read-out: Activity % R3
  activity at 0.03125 µM: 98.3%
[1]; read-out: IC50 EnzChek MtbCoaBC
  IC50: 410 ± 30 nM
[1]; read-out: Inhibition % R1
  inhibition at 0.03125 µM: 3.4%
[1]; read-out: Inhibition % R2
  inhibition at 0.03125 µM: 3.27%
[1]; read-out: Inhibition % R3
  inhibition at 0.03125 µM: 1.68%
[2]; read-out: Minimum inhibitory concentration (MIC), 7H9/ADC/Glycerol
  MIC: > 250 µM
[2]; read-out: Minimum inhibitory concentration (MIC), 7H9/Cholesterol/Tyloxapol
  MIC: > 250 µM
[2]; read-out: Minimum inhibitory concentration (MIC), GAST/Fe
  MIC: 125 µM (≈ 35.8 µg/mL)
